Assay results from patent publication US8765741B2, “5,6-dihydro-1H-pyridin-2-one compounds” (Anadys Pharmaceuticals, Inc., priority 2007, dated 2014).

Target: NS5B polymerase (Hepatitis C virus genotype 1b, UniProt P26663)
Sequence (P26663 2420-3010): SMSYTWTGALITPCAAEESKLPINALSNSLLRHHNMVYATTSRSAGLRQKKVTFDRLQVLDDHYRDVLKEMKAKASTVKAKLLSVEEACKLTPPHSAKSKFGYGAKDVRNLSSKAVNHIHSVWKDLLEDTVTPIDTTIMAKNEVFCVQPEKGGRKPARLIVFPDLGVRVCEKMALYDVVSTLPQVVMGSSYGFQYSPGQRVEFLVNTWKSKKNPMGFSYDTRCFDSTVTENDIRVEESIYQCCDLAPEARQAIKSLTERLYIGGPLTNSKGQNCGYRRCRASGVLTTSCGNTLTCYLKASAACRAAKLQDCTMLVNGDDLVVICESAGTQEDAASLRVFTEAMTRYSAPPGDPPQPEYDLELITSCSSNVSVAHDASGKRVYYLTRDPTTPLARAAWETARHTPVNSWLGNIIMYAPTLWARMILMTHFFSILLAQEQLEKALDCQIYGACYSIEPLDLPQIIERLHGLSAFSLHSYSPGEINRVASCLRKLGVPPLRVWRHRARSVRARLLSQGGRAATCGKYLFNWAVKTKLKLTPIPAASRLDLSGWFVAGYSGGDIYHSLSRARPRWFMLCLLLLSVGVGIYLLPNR
Experiment: biochemical
Settings: NS5B polymerase inhibition; 20 nM enzyme, 75 min at 28° C.; read-out: IC50
Procedure: Compounds were tested for HCV polymerase inhibition. Assays were performed in a 96-well streptavidin-coated FlashPlate using 20 nM enzyme, 0.5 μCi of [α-^33P]GTP, 0.6 μM GTP, and 250 nM 5′biotinylated oligo (rG13)/poly rC in 20 mM Tris-HCl, pH 7.5, 5 mM MgCl2, 5 mM dithiothreitol, 0.1 g/L bovine serum albumin, and 100 U/mL RNAse inhibitor. The reaction was stopped by aspiration after 75 min at 28° C. and the plate was washed several times. After washing and drying the plate, incorporated radioactivity was counted using a Microbeta scintillation counter. IC50 values were calculated relative to the uninhibited control and inhibition data were fitted to a 4-parameter IC50 equation.
With `CS(=O)(=O)Nc1ccc2c(c1)S(=O)(=O)N=C(C1=C(O)[C@@H]3[C@H]4CC[C@H](CC4)[C@@H]3N(Cc3ccc(F)cc3)C1=O)N2` (relative stereo) [Example 50, cis-N-{3-[3-(4-Fluoro-benzyl)-6-hydroxy-4-oxo-3-aza-tricyclo[6.2.2.0^2,7]dodec-5-en-5-yl]-1,1-dioxo-1,4-dihydro-1λ^6-benzo[1,2,4]thiadiazin-7-yl}-methanesulfonamide] the IC50 was under 20 nM.
Compound `CS(=O)(=O)Nc1ccc2c(c1)S(=O)(=O)C=C(C1=C(O)[C@@H]3[C@H]4CC[C@H](C4)[C@@H]3N(Cc3ccc(F)cc3)C1=O)N2` [Example 29, N-{3-[(1R,2S,7R,8S)-3-(4-Fluoro-benzyl)-6-hydroxy-4-oxo-3-aza-tricyclo[6.2.1.0^2,7]undec-5-en-5-yl]-1,1-dioxo-1,4-dihydro-1λ^6-benzo[1,4]thiazin-7-yl}-methanesulfonamide] has an IC50 of under 20 nM.
For `Nc1ccc2c(c1)S(=O)(=O)N=C(C1=C(O)[C@@H]3[C@H]4CC[C@H](C4)[C@@H]3N(Cc3ccc(F)cc3)C1=O)N2` [Example 30, (1R,2S,7R,8S)-5-(7-Amino-1,1-dioxo-1,4-dihydro-1λ^6-benzo[1,2,4]thiadiazin-3-yl)-3-(4-fluoro-benzyl)-6-hydroxy-3-aza-tricyclo[6.2.1.0^2,7]undec-5-en-4-one], the IC50 was 100 to 1000 nM.
`CC(C)CCN1C(=O)C(C2=NS(=O)(=O)c3cc(I)ccc3N2)=C(O)[C@@H]2[C@H]3CC[C@H](C3)[C@@H]21` [Example 34, (1R,2S,7R,8S)-6-Hydroxy-5-(7-iodo-1,1-dioxo-1,4-dihydro-1λ^6-benzo[1,2,4]thiadiazin-3-yl)-3-(3-methyl-butyl)-3-aza-tricyclo[6.2.1.0^2,7]undec-5-en-4-one] showed an IC50 of 1000 to 100000 nM.
Work on `O=C1C(C2=NS(=O)(=O)c3cc(NS(=O)(=O)C4CC4)ccc3N2)=C(O)C2C([C@@H]3CC[C@H]2C3)N1Cc1ccc(F)cc1` (stereo partly drawn) [Example 35, Cyclopropane sulfonic acid{3-[(1R,2S,7R,8S)-3-(4-fluoro-benzyl)-6-hydroxy-4-oxo-3-aza-tricyclo[6.2.1.0^2,7]undec-5-en-5-yl]-1,1-dioxo-1,4-dihydro-1λ^6-benzo[1,2,4]thiadiazin-7-yl}-amide] yielded an IC50 of 20 to 100 nM.
In the case of `CC(C)CCN1C(=O)C(C2=NS(=O)(=O)c3cc(NS(=O)(=O)C4CC4)ccc3N2)=C(O)C2C1[C@@H]1CC[C@H]2C1` (stereo partly drawn) [Example 40, Cyclopropanesulfonic acid{3-(1R,2S,7R,8S)-[6-hydroxy-3-(3-methyl-butyl)-4-oxo-3-aza-tricyclo[6.2.1.0^2,7]undec-5-en-5-yl]-1,1-dioxo-1,4-dihydro-1λ^6-benzo[1,2,4]thiadiazin-7-yl}-amide], the IC50 is reported as 20 to 100 nM.
Compound `O=C1C(C2=NS(=O)(=O)c3cc(NS(=O)(=O)c4ccccc4)ccc3N2)=C(O)[C@@H]2[C@H]3CC[C@H](C3)[C@@H]2N1Cc1ccc(F)cc1` [Example 41, N-{3-[(1R,2S,7R,8S)-3-(4-Fluoro-benzyl)-6-hydroxy-4-oxo-3-aza-tricyclo[6.2.1.0^2,7]undec-5-en-5-yl]-1,1-dioxo-1,4-dihydro-1λ^6-benzo[1,2,4]thiadiazin-7-yl}-benzenesulfonamide] has an IC50 of 20 to 100 nM.
`CS(=O)(=O)Nc1ccc2c(c1)S(=O)(=O)N=C(C1=C(O)C3C([C@@H]4CC[C@H]3C4)N(C3CCCC3)C1=O)N2` (some centres unmarked) [Example 44] gave an IC50 of 100 to 1000 nM.
In the case of `CC(C)OC(=O)N(c1ccc2c(c1)S(=O)(=O)N=C(C1=C(O)C3C([C@@H]4CC[C@H]3C4)N(C3CCCC3)C1=O)N2)S(C)(=O)=O` (stereo partly drawn) [Example 47, N-[3-(1R,2S,7R,8S)-(3-Cyclopentyl-6-hydroxy-4-oxo-3-aza-tricyclo[6.2.1.0^2,7]undec-5-en-5-yl)-1,1-dioxo-1,4-dihydro-1λ^6-benzo[1,2,4]thiadiazin-7-yl]-methanesulfonamide-N-isopropyl carbamate], the IC50 is reported as 1000 to 100000 nM.
In the case of `CS(=O)(=O)Nc1ccc2c(c1)S(=O)(=O)N=C(C1=C(O)[C@@H]3C4CCC(CC4)[C@@H]3N(Cc3ccc(F)cc3)C1=O)N2` [Example 49, N-{3-[(2S,7R)-3-(4-Fluoro-benzyl)-6-hydroxy-4-oxo-3-aza-tricyclo[6.2.2.0^2,7]dodec-5-en-5-yl]-1,1-dioxo-1,4-dihydro-1λ^6-benzo[1,2,4]thiadiazin-7-yl}-methanesulfonamide], the IC50 is reported as under 20 nM.
`CC(C)CCN1C(=O)C(C2=NS(=O)(=O)c3cc(N4CCCC4)ccc3N2)=C(O)[C@@H]2[C@H]3CC[C@H](C3)[C@@H]21` [Example 53, (1R,2S,7R,8S)-5-(1,1-Dioxo-7-pyrrolidin-1-yl-1,4-dihydro-1λ^6-benzo[1,2,4]thiadiazin-3-yl)-6-hydroxy-3-(3-methyl-butyl)-3-aza-tricyclo[6.2.1.0^2,7]undec-5-en-4-one] gave an IC50 of 1000 to 100000 nM.
`O=C1C(C2=NS(=O)(=O)c3cc(NS(=O)(=O)c4cccnc4)ccc3N2)=C(O)C2C([C@@H]3CC[C@H]2C3)N1Cc1ccc(F)cc1` (stereo partly drawn) [Example 54, Pyridine-3-sulfonic acid{3-[(1R,2S,7R,8S)-3-(4-fluoro-benzyl)-6-hydroxy-4-oxo-3-aza-tricyclo[6.2.1.0^2,7]undec-5-en-5-yl]-1,1-dioxo-1,4-dihydro-1λ^6-benzo[1,2,4]thiadiazin-7-yl}-amide] gave an IC50 of 100 to 1000 nM.
`NS(=O)(=O)Nc1ccc2c(c1)S(=O)(=O)N=C(C1=C(O)[C@@H]3[C@H]4CC[C@H](C4)[C@@H]3N(Cc3ccc(F)cc3)C1=O)N2` [Example 55, (1R,2S,7R,8S)-N-{3-[3-(4-Fluoro-benzyl)-6-hydroxy-4-oxo-3-aza-tricyclo[6.2.1.0^2,7]undec-5-en-5-yl]-1,1-dioxo-1,4-dihydro-1λ^6-benzo[1,2,4]thiadiazin-7-yl}-sulfamide] showed an IC50 of under 20 nM.
Work on `CS(=O)(=O)Nc1ccc2c(c1)S(=O)(=O)N=C(C1=C(O)[C@@H]3[C@H]4CC[C@H](C4)[C@@H]3N(Cc3ccccc3)C1=O)N2` [Example 56, (1R,2S,7R,8S)-N-[3-(3-Benzyl-6-hydroxy-4-oxo-3-aza-tricyclo[6.2.1.0^2,7]undec-5-en-5-yl)-1,1-dioxo-1,4-dihydro-1λ^6-benzo[1,2,4]thiadiazin-7-yl]-methanesulfonamide] yielded an IC50 of under 20 nM.
In the case of `CC(C)CN1C(=O)C(C2=NS(=O)(=O)c3cc(NS(C)(=O)=O)ccc3N2)=C(O)[C@@H]2[C@H]3CC[C@H](C3)[C@@H]21` [Example 57, (1R,2S,7R,8S)-N-[3-(6-Hydroxy-3-isobutyl-4-oxo-3-aza-tricyclo[6.2.1.0^2,7]undec-5-en-5-yl)-1,1-dioxo-1,4-dihydro-1λ^6-benzo[1,2,4]thiadiazin-7-yl]-methanesulfonamide], the IC50 is reported as 20 to 100 nM.
For `CS(=O)(=O)Nc1ccc2c(c1)S(=O)(=O)N=C(C1=C(O)[C@@H]3[C@H]4CC[C@H](C4)[C@@H]3N(Cc3ccc(F)c(Cl)c3)C1=O)N2` [Example 58, (1R,2S,7R,8S)-N-{3-[3-(3-Chloro-4-fluoro-benzyl)-6-hydroxy-4-oxo-3-aza-tricyclo[6.2.1.0^2,7]undec-5-en-5-yl]-1,1-dioxo-1,4-dihydro-1λ^6-benzo[1,2,4]thiadiazin-7-yl}-methanesulfonamide], the IC50 was under 20 nM.
`Cc1ccc(CN2C(=O)C(C3=NS(=O)(=O)c4cc(NS(C)(=O)=O)ccc4N3)=C(O)[C@@H]3[C@H]4CC[C@H](C4)[C@@H]32)cc1F` [Example 60, N-{3-[(1R,2S,7R,8S)-3-(3-Fluoro-4-methyl-benzyl)-6-hydroxy-4-oxo-3-aza-tricyclo[6.2.1.0^2,7]undec-5-en-5-yl]-1,1-dioxo-1,4-dihydro-1λ^6-benzo[1,2,4]thiadiazin-7-yl}-methanesulfonamide] gave an IC50 of 20 to 100 nM.
Compound `O=C1C(C2=NS(=O)(=O)c3cc(Br)cnc3N2)=C(O)C2C([C@@H]3CC[C@H]2C3)N1Cc1ccc(F)cc1` (some centres unmarked) [Example 61] has an IC50 of 1000 to 100000 nM.
`CS(=O)(=O)Nc1cnc2c(c1)S(=O)(=O)N=C(C1=C(O)[C@@H]3[C@H]4CC[C@H](C4)[C@@H]3N(Cc3ccc(F)cc3)C1=O)N2` [Example 62, N-{3-[(1R,2S,7R,8S)-3-(4-Fluoro-benzyl)-6-hydroxy-4-oxo-3-aza-tricyclo[6.2.1.0^2,7]undec-5-en-5-yl]-1,1-dioxo-1,4-dihydro-1λ^6-pyrido[2,3-e][1,2,4]thiadiazin-7-yl}-methanesulfonamide] showed an IC50 of 20 to 100 nM.
Compound `O=C1C(C2=NS(=O)(=O)c3cccnc3N2)=C(O)[C@@H]2[C@H]3CC[C@H](C3)[C@@H]2N1Cc1ccc(F)cc1` [Example 63, (1R,2S,7R,8S)-5-(1,1-Dioxo-1,4-dihydro-1λ^6-pyrido[2,3-e][1,2,4]thiadiazin-3-yl)-3-(4-fluoro-benzyl)-6-hydroxy-3-aza-tricyclo[6.2.1.0^2,7]undec-5-en-4-one] has an IC50 of 100 to 1000 nM.
`CS(=O)(=O)Nc1ccc2c(c1)S(=O)(=O)N=C(C1=C(O)[C@@H]3[C@H]4CC[C@H](C4)[C@@H]3N(CCC3CC3)C1=O)N2` [Example 66, N-{3-[(1R,2S,7R,8S)-3-(2-Cyclopropyl-ethyl)-6-hydroxy-4-oxo-3-aza-tricyclo[6.2.1.0^2,7]undec-5-en-5-yl]-1,1-dioxo-1,4-dihydro-1λ^6-benzo[1,2,4]thiadiazin-7-yl}-methanesulfonamide] showed an IC50 of 20 to 100 nM.

System: not given
Experiment: not given
Settings: not given
For `CS(=O)(=O)Nc1ccc2c(c1)S(=O)(=O)N=C(C1=C(O)[C@@H]3[C@H]4CC[C@H](CC4)[C@@H]3N(Cc3ccc(F)cc3)C1=O)N2` (relative stereo) [Example 50, cis-N-{3-[3-(4-Fluoro-benzyl)-6-hydroxy-4-oxo-3-aza-tricyclo[6.2.2.0^2,7]dodec-5-en-5-yl]-1,1-dioxo-1,4-dihydro-1λ^6-benzo[1,2,4]thiadiazin-7-yl}-methanesulfonamide], the melting point was 203.8 to 205.7 °C.
In the case of `CS(=O)(=O)Nc1ccc2c(c1)S(=O)(=O)N=C(C1=C(O)[C@@H]3C4CCC(CC4)[C@@H]3N(Cc3ccc(F)cc3)C1=O)N2` [Example 49, N-{3-[(2S,7R)-3-(4-Fluoro-benzyl)-6-hydroxy-4-oxo-3-aza-tricyclo[6.2.2.0^2,7]dodec-5-en-5-yl]-1,1-dioxo-1,4-dihydro-1λ^6-benzo[1,2,4]thiadiazin-7-yl}-methanesulfonamide], the melting point is reported as 203.8 to 205.7 °C.
